Reference: patent publication US12414997B2, “Brush prodrugs and uses thereof” (Massachusetts Institute of Technology, priority 2018, dated 2025)

Legend:
[1] = tested on: orthotopic, syngeneic tumor; assay: Efficacy of Brush prodrugs in orthotopic, syngeneic tumor (tumor volume, tumor weight, body weight); format: in vivo
Experimental: In FIGS. 5D to 5F, “iBET” refers to OTX-015.
Tumor volumes are calculated after measuring length and width using digital calipers. Tumors were also weighted, and the body weight was measured.

[2] = clinical; cited from earlier work

## Cc1sc2c(c1C)C(c1ccc(Cl)cc1)=N[C@@H](CC(=O)Nc1ccc(O)cc1)c1nnc(C)n1-2 [OTX-015]
[1]; tolerated dose 100 mpk BID, PO (FIG. 5C)
  body weight loss: minor weight loss
[1]; tolerated doses 5 mpk and 10 mpk (FIG. 5F)
  body weight loss: minor weight loss
[2]
  dose-limiting toxicity: anemia: 91%
  dose-limiting toxicity: neutropenia: 51%
  dose-limiting toxicity: thrombocytopenia: 96%
